The numbers were not newly measured in patent US20240009323A1, “METHODS OF TREATING COLON CANCER USING NANOPARTICLE MTOR INHIBITOR COMBINATION THERAPY” (Abraxis BioScience, LLC, priority 2017, published 2024), which cites them from elsewhere.

Each structure is given as a SMILES string.

The conditions of series [1]: in vivo.

Consider `COc1ccc(COc2cc3oc(=O)c4cc(C(C)O)ccc4c3cc2OC)cc1` (centres unmarked) [Palomid 529], for which the brain penetration result in series [1] is listed as “good brain penetration”. In addition, the “affinity for ABCB1/ABCG2” value in the series with ABCB1/ABCG2 is given as “lacks affinity”.
